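Test compounds were applied to cells in 96-well plates for 48 hours at 5 doses. At the GI50, growth is halved.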 Activity calls are given as the source filed them. Cut-off read from the data, not from the text of the source: active = GI50 up to about 1.1 µM and inactive = higher.
Key:
Experiment in all cases: DTP human tumour cell line panel, 48 h
786-0 = tested on: 786-0
A498 = tested on: A498
COLO 205 = tested on: COLO 205
HCT-15 = tested on: HCT-15
HT-29 = tested on: HT-29
Malme-3M = tested on: Malme-3M
NCI-H226 = tested on: NCI-H226
OVCAR-5 = tested on: OVCAR-5
SF-295 = tested on: SF-295
SF-539 = tested on: SF-539
SNB-19 = tested on: SNB-19
SNB-75 = tested on: SNB-75
U-251 = tested on: U-251
UACC-62 = tested on: UACC-62
CCRF-CEM = tested on: CCRF-CEM

| SMILES | GI50 (786-0) | GI50 (A498) | GI50 (COLO 205) | GI50 (HCT-15) | GI50 (HT-29) | GI50 (Malme-3M) | GI50 (NCI-H226) | GI50 (OVCAR-5) | GI50 (SF-295) | GI50 (SF-539) | GI50 (SNB-19) | GI50 (SNB-75) | GI50 (U-251) | GI50 (UACC-62) | GI50 (CCRF-CEM) |
| --- | --- | --- | --- | --- | --- | --- | --- | --- | --- | --- | --- | --- | --- | --- | --- |
| CCN1CCC(O)(/C=C/c2ccccc2)C(C(=O)/C=C/c2ccccc2)C1 (centres undefined) | 1.75 µM (inactive) | 6.21 µM (inactive) | 1.77 µM (inactive) | 1.87 µM | 1.76 µM (inactive) | 2.26 µM (inactive) | 3.02 µM (inactive) | 3.06 µM (inactive) | 2.96 µM (inactive) | 1.91 µM (inactive) | 9.98 µM (inactive) | 6.4 µM (inactive) | 2.15 µM (inactive) | 1.71 µM (inactive) |  |
| Cc1cc(NS(=O)(=O)c2ccc(Nc3c4ccccc4nc4c(C(=O)NCCN(C)C)cccc34)cc2)no1 | 3.83 µM (inactive) |  | 6.12 µM (inactive) | 18.5 µM | 6.03 µM (inactive) |  | 0.524 µM (active) | 17.9 µM (inactive) | 8.38 µM (inactive) | 2.12 µM (inactive) | 1.72 µM (inactive) | 4.09 µM (inactive) | 2.3 µM (inactive) | 2.55 µM (inactive) | 1.08 µM (active) |
| Cc1ccc(C2[C@H]3C(=O)N(c4ccc(Cc5ccc(N6C(=O)[C@@H]7ON(c8ccccc8)C(c8ccc(C)cc8)[C@@H]7C6=O)cc5)cc4)C(=O)[C@H]3ON2c2ccccc2)cc1 (some centres undefined) | > 100 µM (inactive) | > 100 µM (inactive) | > 100 µM (inactive) | > 100 µM | > 100 µM (inactive) | > 100 µM (inactive) | > 100 µM (inactive) | > 100 µM (inactive) | > 100 µM (inactive) | > 100 µM (inactive) |  | 99.8 µM (inactive) | > 100 µM (inactive) | > 100 µM (inactive) | > 100 µM (inactive) |
| CC(=O)OC12C=CC(=O)N1c1ccccc1C(=O)O2 (centres undefined) | > 100 µM (inactive) |  | > 100 µM (inactive) | > 100 µM | > 100 µM (inactive) | 0.962 µM (active) | > 100 µM (inactive) | > 100 µM (inactive) | > 100 µM (inactive) | > 100 µM (inactive) | > 100 µM (inactive) | > 100 µM (inactive) | > 100 µM (inactive) | > 100 µM (inactive) | > 100 µM (inactive) |
| CCC(CC)NC1=C(NC(C)=O)C(=O)c2ccccc2C1=O | > 50 µM (inactive) |  | > 50 µM (inactive) | > 50 µM | > 50 µM (inactive) | 45.4 µM (inactive) | > 50 µM (inactive) |  | > 50 µM (inactive) | > 50 µM (inactive) | > 50 µM (inactive) | > 50 µM (inactive) | > 50 µM (inactive) | > 50 µM (inactive) | > 50 µM (inactive) |
| O=C1c2ccccc2C(=O)N1CCN(CCN1C(=O)c2ccccc2C1=O)Cn1cccn1 | > 100 µM (inactive) | > 100 µM (inactive) | > 100 µM (inactive) | > 100 µM |  |  |  |  | > 100 µM (inactive) |  | > 100 µM (inactive) | 87.3 µM (inactive) | > 100 µM (inactive) | 28.2 µM (inactive) | 32.7 µM (inactive) |
| C=CCCC(C)N(C(=O)OC(C)(C)C)S(=O)(=O)c1ccc(C)cc1 (centres undefined) | > 100 µM (inactive) |  | > 100 µM (inactive) | > 100 µM | > 100 µM (inactive) | > 100 µM (inactive) | > 100 µM (inactive) | > 100 µM (inactive) | > 100 µM (inactive) | > 100 µM (inactive) | > 100 µM (inactive) | > 100 µM (inactive) | > 100 µM (inactive) | 77.4 µM (inactive) |  |
| CCOC(=O)CCC(NC(=O)c1ccc(NCc2ccc3nc(-c4ccccc4)c(Cl)nc3c2)cc1)C(=O)OCC (centres undefined) | 80.7 µM (inactive) | 24.5 µM (inactive) | 20.5 µM (inactive) | 64.1 µM | > 100 µM (inactive) | 13 µM (inactive) | 32.4 µM (inactive) | > 100 µM (inactive) | 76.2 µM (inactive) | 35.8 µM (inactive) | 97.7 µM (inactive) | 16.9 µM (inactive) | 69.7 µM (inactive) |  | 25.6 µM (inactive) |
| CC1C=C[C@H](Sc2ccccc2)CC[C@@]1(C)O (some centres undefined) | > 100 µM (inactive) | > 100 µM (inactive) | > 100 µM (inactive) | > 100 µM | > 100 µM (inactive) | > 100 µM (inactive) | > 100 µM (inactive) | > 100 µM (inactive) |  | > 100 µM (inactive) | 89.9 µM (inactive) | 97.1 µM (inactive) | > 100 µM (inactive) | 86.1 µM (inactive) | 34.7 µM (inactive) |
| Cc1ccc(S(=O)(=O)NC2(C=O)CCCC3CCCCC32)cc1 (centres undefined) | > 100 µM (inactive) | > 100 µM (inactive) | > 100 µM (inactive) | > 100 µM |  | > 100 µM (inactive) | > 100 µM (inactive) |  |  | > 100 µM (inactive) | > 100 µM (inactive) | > 100 µM (inactive) | > 100 µM (inactive) | > 100 µM (inactive) | > 100 µM (inactive) |
| COC(=O)c1ccc2n[se]nc2c1 | > 100 µM (inactive) | > 100 µM (inactive) |  | > 100 µM | > 100 µM (inactive) | > 100 µM (inactive) |  | > 100 µM (inactive) | > 100 µM (inactive) | > 100 µM (inactive) | > 100 µM (inactive) | 83.6 µM (inactive) | > 100 µM (inactive) | > 100 µM (inactive) | > 100 µM (inactive) |
| CC(=O)O[C@]12CCCCC1C1(O)C(O)CCCC[C@H]12 (some centres undefined) | > 100 µM (inactive) |  | > 100 µM (inactive) | > 100 µM | > 100 µM (inactive) | > 100 µM (inactive) | > 100 µM (inactive) |  | > 100 µM (inactive) |  | > 100 µM (inactive) | 29.6 µM (inactive) | > 100 µM (inactive) | > 100 µM (inactive) | > 100 µM (inactive) |
| COC(=O)C1[C@@H](C(=O)OC)C12C=Cc1ccccc1C=C2 (some centres undefined) | > 100 µM (inactive) | 38.5 µM (inactive) | > 100 µM (inactive) | > 100 µM |  | > 100 µM (inactive) |  | > 100 µM (inactive) | > 100 µM (inactive) | > 100 µM (inactive) | > 100 µM (inactive) |  | > 100 µM (inactive) | > 100 µM (inactive) | > 100 µM (inactive) |
| CC1OC(=O)C(O)=C1O (centres undefined) | > 100 µM (inactive) |  | > 100 µM (inactive) | > 100 µM | > 100 µM (inactive) | > 100 µM (inactive) | > 100 µM (inactive) | > 100 µM (inactive) | > 100 µM (inactive) | > 100 µM (inactive) | > 100 µM (inactive) | > 100 µM (inactive) | > 100 µM (inactive) | > 100 µM (inactive) | > 100 µM (inactive) |
| CCOC(=O)/C(=C/c1ccc(N(C)C)cc1)N(CC)CC | > 100 µM (inactive) |  | > 100 µM (inactive) | 40.3 µM |  | > 100 µM (inactive) | 21.1 µM (inactive) | > 100 µM (inactive) | > 100 µM (inactive) | > 100 µM (inactive) | > 100 µM (inactive) |  | > 100 µM (inactive) | 74.5 µM (inactive) | 27 µM (inactive) |
